Reference: patent US20210023111A1, “Novel Form of Invermectin and a Process for Making it” (Hovione Scientia Limited, priority 2018, published 2021)

Assays:
[1] = Water solubility by HPLC, amorphous vs crystalline ivermectin; assay type: physicochemical; details: for peak on the HPLC chromatogram (water solubility): LOD of the HPLC method
Description: This confirms that the amorphous form is more water soluble than the known crystalline form.

[2] = Solid-state stability of the amorphous form on storage (XRPD); assay type: physicochemical
Description: By stable we mean that the amorphous form is maintained after a certain period of time under certain environmental conditions. We have data confirming that the product maintains its amorphous form at room temperature for at least 3.5 months.
X-ray diffraction (XRPD) analysis was made with PANalytical Empyrean equipped with copper tube and PIXel1D-Medpix3 detector (Malvern Panalytical, UK).

Substance	water solubility relative to the crystalline form [1]	peak on the HPLC chromatogram (water solubility) ([1]; listed as amorphous form)	amorphous character after storage (XRPD, FIG. 7) ([2]; 3 months in the freezer followed by 3.5 months at room temperature (25° C.))	time for which the product maintains its amorphous form ([2]; room temperature)	peak on the HPLC chromatogram (water solubility) [1]
ivermectin [amorphous ivermectin]	higher than its corresponding crystalline form	small, but visible peak	amorphous character is maintained	at least 3.5 months	–
ivermectin [known crystalline form, reference compound]	–	–	–	–	no visible peak
